Data set [1] is described as follows: Half life in human liver microsomes at 1 uM preincubated for 10 mins followed by NADPH addition measured up to 60 mins by LC-MS/MS analysis. The data set is classed as ADME, microsome.
A further data set addresses CYP2C19 (Homo sapiens, UniProt P33261). Put plainly: Inhibition of CYP2C19 in human liver microsomes at 10 uM after 10 mins in presence of NADPH by LC-MS/MS analysis relative to control. The data set is classed as ADME.
Data set [2] in a line: Selectivity ratio of compound effect for inhibition of HDAC6 in human SH-SY5Y cells assessed as induction of tubulin K-40 acetylation level to compound effect for inhibition of class-1 HDAC in human SH-SY5Y cells assessed as induction of AcH3K9 level. The data set is classed as functional.
A further data set concerns Mus musculus. Put plainly: Cognitive enhancing effect in Tg2576 mouse model of Alzheimer's disease assessed as long term associative memory improvement by measuring freezing after electric shock at 40 mg/kg, ip for 2 weeks measured at 24 hrs post electric shock (reference value: 54%). The data set is classed as functional.
Data set [3] can be described thus: Cytotoxicity against human THLE2 cells after 72 hrs by vialight cell proliferation assay. To be noted: read-out: LC50. Format: cell-based, THLE-2.
For data set [4], the target named is cGMP-inhibited 3',5'-cyclic phosphodiesterase 3A (Homo sapiens, UniProt Q14432). Put plainly: Inhibition of PDE3A (unknown origin) using FAM-cGMP as substrate by fluorescence assay.
The target in the next data set is CYP1A2 (Homo sapiens, UniProt P05177). Put plainly: Inhibition of CYP1A2 in human liver microsomes at 10 uM after 10 mins in presence of NADPH by LC-MS/MS analysis relative to control. Format: ADME. For orientation: Liver microsomes are a subcellular fraction often used to study metabolism.
In the next data set the target is CYP2D6 (Homo sapiens, UniProt P10635). Put plainly: Inhibition of CYP2D6 in human liver microsomes at 10 uM after 10 mins in presence of NADPH by LC-MS/MS analysis relative to control. Format: ADME.
Data set [5] is described as follows: Inhibition of class-1 HDAC in human SH-SY5Y cells assessed as induction of AcH3K9 level at 160 nM after 2 hrs by AlphaLISA assay. The data set is classed as cell-based. To be noted: 0.16 µM. On the technique in general: In Alpha technology, singlet oxygen from a donor bead excites a nearby acceptor bead.
Data set [6] addresses cGMP-specific 3',5'-cyclic phosphodiesterase (Homo sapiens, UniProt O76074). Kind of data set: Inhibition of full length human recombinant N-terminal GST-tagged PDE5A1 expressed in baculovirus infected sf9 cells using cGMP as substrate after 30 mins by fluorescence assay.

Chain of cGMP-inhibited 3',5'-cyclic phosphodiesterase 3A (Q14432 whole entry): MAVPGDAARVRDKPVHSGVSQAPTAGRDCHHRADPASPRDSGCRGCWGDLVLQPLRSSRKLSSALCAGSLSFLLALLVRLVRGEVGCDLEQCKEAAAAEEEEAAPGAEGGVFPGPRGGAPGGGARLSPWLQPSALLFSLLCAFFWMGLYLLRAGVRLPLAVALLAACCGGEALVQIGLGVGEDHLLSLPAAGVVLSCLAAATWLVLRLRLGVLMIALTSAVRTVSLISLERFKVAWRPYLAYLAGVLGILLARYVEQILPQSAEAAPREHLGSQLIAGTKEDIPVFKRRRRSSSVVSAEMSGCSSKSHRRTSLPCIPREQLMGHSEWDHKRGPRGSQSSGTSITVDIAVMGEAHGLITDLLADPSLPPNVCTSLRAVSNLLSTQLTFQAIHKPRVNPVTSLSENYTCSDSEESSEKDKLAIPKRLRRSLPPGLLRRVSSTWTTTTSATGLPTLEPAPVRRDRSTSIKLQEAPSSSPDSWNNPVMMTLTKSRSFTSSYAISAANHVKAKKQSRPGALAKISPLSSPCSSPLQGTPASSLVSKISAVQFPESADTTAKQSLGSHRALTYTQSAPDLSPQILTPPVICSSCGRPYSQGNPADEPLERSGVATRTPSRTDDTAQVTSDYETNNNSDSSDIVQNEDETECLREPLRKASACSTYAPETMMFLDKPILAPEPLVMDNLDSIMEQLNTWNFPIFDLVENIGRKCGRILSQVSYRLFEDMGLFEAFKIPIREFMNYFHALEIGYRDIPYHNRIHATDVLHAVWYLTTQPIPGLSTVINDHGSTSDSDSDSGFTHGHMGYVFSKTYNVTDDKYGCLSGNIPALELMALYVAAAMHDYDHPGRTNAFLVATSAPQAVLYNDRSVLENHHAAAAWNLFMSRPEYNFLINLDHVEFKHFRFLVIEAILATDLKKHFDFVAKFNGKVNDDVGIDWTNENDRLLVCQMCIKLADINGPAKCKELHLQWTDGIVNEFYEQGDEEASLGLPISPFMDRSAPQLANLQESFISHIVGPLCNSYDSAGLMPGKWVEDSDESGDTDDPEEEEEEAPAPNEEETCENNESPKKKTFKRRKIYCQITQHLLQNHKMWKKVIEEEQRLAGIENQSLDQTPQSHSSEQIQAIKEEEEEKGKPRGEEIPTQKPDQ
Chain of CYP2C19 (P33261 whole entry): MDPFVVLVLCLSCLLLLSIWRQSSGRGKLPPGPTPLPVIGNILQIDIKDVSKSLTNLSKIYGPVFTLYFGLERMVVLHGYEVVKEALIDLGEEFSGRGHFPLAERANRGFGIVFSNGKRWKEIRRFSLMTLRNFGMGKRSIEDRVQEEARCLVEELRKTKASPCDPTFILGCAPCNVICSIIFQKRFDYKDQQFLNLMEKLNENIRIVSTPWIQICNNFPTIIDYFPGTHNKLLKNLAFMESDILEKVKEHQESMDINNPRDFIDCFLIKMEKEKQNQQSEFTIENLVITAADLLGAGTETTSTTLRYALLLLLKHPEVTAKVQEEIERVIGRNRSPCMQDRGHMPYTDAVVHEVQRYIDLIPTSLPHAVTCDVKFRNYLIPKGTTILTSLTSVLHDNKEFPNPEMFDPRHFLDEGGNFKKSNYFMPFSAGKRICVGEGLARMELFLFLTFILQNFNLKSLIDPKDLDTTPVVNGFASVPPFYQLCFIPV
Chain of CYP2D6 (P10635 whole entry): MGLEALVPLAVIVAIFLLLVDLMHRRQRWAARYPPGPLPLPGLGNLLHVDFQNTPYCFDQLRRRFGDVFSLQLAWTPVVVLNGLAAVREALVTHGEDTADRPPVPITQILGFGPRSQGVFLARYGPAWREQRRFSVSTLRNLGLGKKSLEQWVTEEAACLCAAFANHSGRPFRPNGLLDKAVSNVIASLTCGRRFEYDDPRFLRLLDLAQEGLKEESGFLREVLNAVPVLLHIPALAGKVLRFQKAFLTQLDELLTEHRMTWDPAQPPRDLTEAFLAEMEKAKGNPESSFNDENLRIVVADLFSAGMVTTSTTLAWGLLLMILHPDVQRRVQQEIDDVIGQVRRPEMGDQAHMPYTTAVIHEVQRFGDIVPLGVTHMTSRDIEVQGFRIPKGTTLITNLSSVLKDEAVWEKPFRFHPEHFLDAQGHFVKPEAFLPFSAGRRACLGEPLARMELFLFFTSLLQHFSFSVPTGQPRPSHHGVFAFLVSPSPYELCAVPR
Chain of CYP1A2 (P05177 whole entry): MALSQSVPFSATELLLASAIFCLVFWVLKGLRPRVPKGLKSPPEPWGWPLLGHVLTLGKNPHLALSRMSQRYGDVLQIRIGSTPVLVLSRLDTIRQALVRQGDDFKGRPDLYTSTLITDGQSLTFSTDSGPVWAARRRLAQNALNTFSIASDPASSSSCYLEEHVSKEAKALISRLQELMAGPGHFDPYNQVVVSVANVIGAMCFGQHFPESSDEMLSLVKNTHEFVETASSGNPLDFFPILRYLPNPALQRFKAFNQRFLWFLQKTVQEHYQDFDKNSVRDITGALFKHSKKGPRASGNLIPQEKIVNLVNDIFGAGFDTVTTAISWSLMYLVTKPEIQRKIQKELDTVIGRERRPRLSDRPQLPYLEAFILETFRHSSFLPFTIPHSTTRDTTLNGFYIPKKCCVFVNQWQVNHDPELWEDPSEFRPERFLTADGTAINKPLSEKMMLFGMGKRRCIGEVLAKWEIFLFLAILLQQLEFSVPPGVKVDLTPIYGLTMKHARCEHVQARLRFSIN

`CCCc1nn(C)c2c(=O)[nH]c(-c3cc(Cc4ccc(C(=O)NO)s4)ccc3OCC)nc12`: in [1], the half-life – broadly, the time needed for the level to fall by half in the phase considered – at 1 µM was determined as 32.7 min. The inhibition at 10 min, 10 µM on CYP2C19, at CYP1A2 and on CYP2D6 was under 50% in each case. Besides, the Selectivity ratio in [2] is over 5. The Activity in the data set with Mus musculus was found to be 68%. In addition, the CC50 at 72 h in data set [3] worked out at 6.81 µM. The figures for the IC50 in data set [4] and in data set [6] were 3.2 µM and 0.011 µM, respectively. The “inhibition (INH)” value in data set [5] was “Active”.
